Entries after “also recorded” stand apart in the source; their conditions may differ.
test system: house male Sprague Dawley (SD) rats; experiment: In vivo urinary phosphate excretion in rats fed test substance mixed in Purina 5002 diet; set-up: species or system rat; conditions: Table 1; 0.25% of diet by weight in Purina 5002; cellulose negative control
Procedure: House male Sprague Dawley (SD) rats were used for the experiments.
To establish baseline phosphorus excretion, the rats were placed in metabolic cages for 48 hours. Their urine was collected and its phosphorus content analyzed with a Hitachi analyzer to determine phosphorus excretion in mg/day. Any rats with outlying values were excluded; and the remainder of the rats was distributed into groups.
Cellulose at 0.5% by weight was used as a negative control. For each rat, 200 g of diet was prepared.
Each rat was weighed and placed on the standard diet. After 4 days the standard diet was replaced with the treatment diet (or control diet for the control group). On days 5 and 6, urine samples from the rats at 24 hours (±30 minutes) were collected and analyzed. The test rats were again weighed, and any weight loss or gain was calculated. Any remaining food was also weighed to calculate the amount of food consumed per day. A change in phosphorus excretion relative to baseline and cellulose negative control was calculated using Excel program.
A change in phosphorus excretion relative to baseline and cellulose negative control was calculated using Excel program.

SMILES	% Urinary Phosphate Relative to that of Control Animals [%]
[O-2].[Zn+2] [zinc oxide, nanopowder, zinc oxide]	50.7

same assay, conditions: Table 1; 0.25% of diet by weight in Purina 5002; urine collected on days 5 and 6

SMILES	Phosphate Excretion [mg/day]
[O-2].[Zn+2] [zinc oxide, nanopowder, zinc oxide]	9.7

same assay, conditions: Table 1; 0.5% of diet by weight in Purina 5002; cellulose 0.5% negative control

SMILES	% Urinary Phosphate Relative to that of Control Animals [%]
[Cl-].[Cl-].[Zn+2] [Zinc chloride]	50.6
CC(=O)[O-].CC(=O)[O-].O.O.[Zn+2] [Zinc acetate dehydrate]	56.7
O.O.O=C([O-])CC(O)(CC(=O)[O-])C(=O)[O-].O=C([O-])CC(O)(CC(=O)[O-])C(=O)[O-].[Zn+2].[Zn+2].[Zn+2] [Zinc citrate dihydrate]	70.8
O=C[O-].O=C[O-].[Zn+2] [Zinc Formate]	48.5
NCC(=O)[O-].NCC(=O)[O-].O.[Zn+2] [Zinc glycinate monohydrate]	79.7
O=C([O-])C(=O)[O-].[Zn+2] [Zinc Oxalate]	78.0
[O]=[Zn] [Zinc oxide]	18.4

same assay, conditions: Table 1; 0.5% of diet by weight in Purina 5002; urine collected on days 5 and 6

SMILES	Phosphate Excretion [mg/day]
[Cl-].[Cl-].[Zn+2] [Zinc chloride]	8.8
CC(=O)[O-].CC(=O)[O-].O.O.[Zn+2] [Zinc acetate dehydrate]	9.4
O.O.O=C([O-])CC(O)(CC(=O)[O-])C(=O)[O-].O=C([O-])CC(O)(CC(=O)[O-])C(=O)[O-].[Zn+2].[Zn+2].[Zn+2] [Zinc citrate dihydrate]	12
O=C[O-].O=C[O-].[Zn+2] [Zinc Formate]	10.1
NCC(=O)[O-].NCC(=O)[O-].O.[Zn+2] [Zinc glycinate monohydrate]	15.5
O=C([O-])C(=O)[O-].[Zn+2] [Zinc Oxalate]	16.2
[O]=[Zn] [Zinc oxide]	3.2

same assay, conditions: rats on zinc therapy vs control which did not go through the zinc therapy

SMILES	amounts of urinary phosphate compared with control (in words)
[Cl-].[Cl-].[Zn+2] [Zinc chloride]	much lower; also recorded: substantially reduce
CC(=O)[O-].CC(=O)[O-].O.O.[Zn+2] [Zinc acetate dehydrate]	much lower
O=C[O-].O=C[O-].[Zn+2] [Zinc Formate]	much lower
O=C([O-])C(=O)[O-].[Zn+2] [Zinc Oxalate]	much lower
[O]=[Zn] [Zinc oxide]	much lower; also recorded: substantially reduce

same assay, conditions: rats on zinc therapy vs control which did not go through the zinc therapy; citrate dihydrate

SMILES	amounts of urinary phosphate compared with control (in words)
O.O.O=C([O-])CC(O)(CC(=O)[O-])C(=O)[O-].O=C([O-])CC(O)(CC(=O)[O-])C(=O)[O-].[Zn+2].[Zn+2].[Zn+2] [Zinc citrate dihydrate]	much lower; also recorded: substantially reduce

same assay, conditions: rats on zinc therapy vs control which did not go through the zinc therapy; listed as zinc acetate dihydrate

SMILES	amounts of urinary phosphate compared with control (in words)
CC(=O)[O-].CC(=O)[O-].O.O.[Zn+2] [Zinc acetate dehydrate]	substantially reduce

same assay, conditions: rats on zinc therapy vs control which did not go through the zinc therapy; monohydrate

SMILES	amounts of urinary phosphate compared with control (in words)
NCC(=O)[O-].NCC(=O)[O-].O.[Zn+2] [Zinc glycinate monohydrate]	much lower; also recorded: substantially reduce

Reference: patent US20080014288A1, “Zinc-containing treatments for hyperphosphatemia” (priority 2004, published 2008)
